“Also recorded” adds a separate entry of the source.
Assays:
[1] = system: α-MHC and β-MHC expression in cardiac ventricles; test: Quantitative RT-PCR of ventricular α-MHC and β-MHC in cultured whole embryos; parameters: species or system mouse
Description: (§1) Whole embryo culture Embryos ([…]) with intact yolk sacs were isolated and incubated in 1 ml culture medium containing 97% rat serum (Harlan Biosciences, Cincinnati, Ohio), 2 mg glucose, 100 U penicillin G and 100 μg streptomycin that was rotated slowly at […] and gassed periodically (every 8 hours) with 20% oxygen, 5% carbon dioxide, 75% nitrogen from E8.75 to E9.5, and 70% oxygen, 5% carbon dioxide and 25% nitrogen from E9.5 to E10.5. BMP10 (10 nM, RD Systems, Minneapolis, Minn.), BSA (125 ng/ml), TSA (100-500 nM, Sigma-Aldrich, St. Louis, Mo.), PJ-34 (20 uM, Alexis Corporation, San Diego)), BrdU (30_g/mL, Simga-Aldrich) or DMSO was added directly to the culture medium or during the last six hours for BrdU. Embryos were harvested 36-48 hours later for analysis.
Quantitative RT-PCR analysis. Quantitative RT-PCR analyses were performed as described previously to examine gene expressions in the cardiac ventricles of E10.5/E11.5 embryonic hearts and adult hearts. The following primer sequences were used: Murine MHO, 5′ primer […], 3′ primer […]. Murine β-MHC, 5″ primer […], 3′ primer […]. Murine HPRT, 5′ primer GCTGGTGAAAAGGACCTCT, 3′ primer […]. Murine Brg1, 5″ primer […], 3′ primer […]. Human H3F3A, 5′ primer […], 3′ primer […]. Human Brg1, 5′ primer […], 3′ primer […]. Human α-MHC and β-MHC were by Taqman probes (Applied Biosciences, Foster City, Calif.. RT-PCR reactions were performed using SYBR green master mix (BioRad, Hercules, Calif.) or Taqman reagents (Applied Biosciences), and the primer sets were tested to be quantitative. Threshold cycles and melting curve measurements were performed with software.

α-MHC promoter = test: Luciferase reporter assay of α-MHC promoter activity in SW13 cells; format: cell-based, human
Description: (§2) Cloning and Luciferase Reporter Assay Full length as well as serially truncated versions of intergenic α-MHC and β-MHC promoters were cloned into pREP4-Luc reporter plasmid, as detailed in the supplementary method. The constructs were transfected into SW13 cells with lipofectamine 2000 (Invitrogen, Calif.) along with pREP7-RL as a transfection efficiency control and Brg1 expression vector with the appropriate empty vector control. Luciferase activity was measured and normalized to that of Renilla luciferase construct using the Dual-Luciferase Reporter System (Promega, Wis.).
(§3) Cloning and Luciferase Reporter Assay Specific truncations for the reporter constructs are as follows: for α-MHC promoter, full length promoter spans from 4243 by upstream and 192 by downstream of the transcription start site (−4243, +192), serially truncated versions span (−2537, +192), (−1802, +192), and (−462, +192). Likewise, β-MHC promoters span (−3561, +222), (−1770, +222), and (−835, +222).

β-MHC promoter = test: Luciferase reporter assay of β-MHC promoter activity in SW13 cells; format: cell-based, human
Description: as §2, §3

[2] = system: myocardial proliferation in cultured embryos; test: Myocardial BrdU incorporation in whole embryo culture; parameters: species or system mouse
Description: Quantitative analysis of myocardial development H&E-stained 7 μm paraffin sections were used for the morphometric analysis of the compact and trabecular myocardium. The following parameters were measured: thickness of compact 4 myocardium, number of trabeculi directly connected to compact myocardium, and trabecular area normalized to ventricular size. BrdU-stained sections were used to count the number of BrdU-positive cells per area of myocardium or per number of cells in the endocardium or endocardial cushions. All quantification and scale measurement were performed using NIS-Elements software (Nikon).
as §1
Proliferation and apoptosis analysis. Pregnant mice were injected with BrdU (Sigma, 100 μg/ml, intraperitoneal injection) for 6 hours prior to embryo isolation at E10.5 or E11.5. Incorporated BrdU was stained in the tissue-section of the heart according to manufacturer's protocol (Zymed Laboratories, South San Francisco, Calif.). Apoptosis of embryos were analyzed by TUNEL staining using a kit (Roche, Applied Science, Indianapolis, Ind.).

embryos = test: Gross morphology of cultured whole embryos; parameters: species or system mouse; conditions: whole embryos cultured from E9 to E10, compared to littermates treated with DMSO
Description: as §1

[3] = whole embryos cultured from E9 to E10, vs DMSO

Molecule: CC(/C=C/C(=O)NO)=C\[C@@H](C)C(=O)c1ccc(N(C)C)cc1 [TSA, trichostatin A]
- increase in α/β MHC ratio [1, 3]: 3.5 folds
- α-MHC expression [1, 3]: significantly up-regulated
- β-MHC expression [1, 3]: down-regulated
- effect on BAF-mediated repression of α-MHC reporter (α-MHC promoter; SW13 cells transfected with Brg1 expression vector): reversed the BAF-mediated repression of α-MHC
- effect on Brg1-induced β-MHC promoter activation (β-MHC promoter; SW13 cells transfected with Brg1-expressing plasmid): no significant impact
- reduction of β-MHC promoter activity (β-MHC promoter; SW13 cells, basal activity without Brg1): 55%
- myocardial proliferation (BrdU incorporation) ([2]; wildtype embryos cultured from E8.75 to E10.5, BrdU last six hours, vs DMSO): normal
- gross morphology of treated embryos (embryos): grossly normal

Molecule: CN(C)CC(=O)Nc1ccc2[nH]c(=O)c3ccccc3c2c1 [PJ-34]
- MHC switch in cultured embryos ([1]; embryos cultured from E9 to E10, PJ-34 20 uM): exhibited α- and β-MHC switches; also recorded: causes MHC switch from β-MHC to α-MHC
- effect on Brg1-mediated α-MHC repression (α-MHC promoter; SW13 cells, PARP1 inhibition): reduced
- effect on Brg1-mediated β-MHC activation (β-MHC promoter; SW13 cells, PARP1 inhibition): reduced

B1: BMP10: BMP10 protein (10 nM, RD Systems) required for the proliferation of myocardial cells (protein, UniProt O95393 317-424, looked up)
Bone morphogenetic protein 10: NAKGNYCKRTPLYIDFKEIGWDSWIIAPPGYEAYECRGVCNYPLAEHLTPTKHAIIQALVHLKNSQKASKACCVPTKLEPISILYLDKGVVTYKFKYEGMAVSECGCR
- effect on premature MHC differentiation (α-MHC over-, β-MHC under-expression) ([1]; cultured Sm22αCre;Brg1F/F embryos, BMP10 vs BSA): failed to reverse the premature MHC differentiation
- increase of BrdU incorporation ([2]; Sm22αCre;Brg1F/F embryos cultured from E8.75 for 42 to 48 hours, BMP10 10 nM): 2.6 folds
- BrdU incorporation restored to (relative to control embryos) ([2]; Sm22αCre;Brg1F/F embryos cultured from E8.75 for 42 to 48 hours, BMP10 10 nM, untreated mutant 33+/−12%): 85+/−10%

— patent publication US20130109738A1, “Control of Cardiac Growth, Differentiation and Hypertrophy” (The Board of Trustees of the Leland Stanford Junior …, priority 2010, published 2013)
